Values quoted from earlier work as cited in US5093338A, “Lipophilic macrolide useful as an immunosuppressant” (Merck & Co., Inc., priority 1991, dated 1992).

Legend:
[1] = system: allergic encephalomyelitis; settings: rats
[2] = system: adjuvant-induced arthritis; settings: rats
antibody production = settings: rats
[3] = system: heterotopic heart allografts
[4] = rats given heterotopic heart allografts
transplantation = settings: combination with Cyclosporin A; heart, kidney, bowel, pancreas or other transplantation

## CO[C@H]1C[C@@H]2CC[C@@H](C)[C@@](O)(O2)C(=O)C(=O)N2CCCC[C@H]2C(=O)O[C@H]([C@H](C)C[C@@H]2CC[C@@H](O)[C@H](OC)C2)CC(=O)[C@H](C)/C=C(\C)[C@@H](O)[C@@H](OC)C(=O)[C@H](C)C[C@H](C)/C=C/C=C/C=C/1C [rapamycin]
[1]
  inhibiting the response to allergic encephalomyelitis: inhibiting the response to allergic encephalomyelitis
[2]
  inhibiting the response to adjuvant-induced arthritis: inhibiting the response to allergic encephalomyelitis,adjuvant-induced arthritis
Antibody production
  inhibiting antibody production: inhibiting the response to allergic encephalomyelitis,adjuvant-induced arthritis and antibody production
[3]
  immunosuppressive in rats given heterotopic heart allografts: immunosuppressive
[4]
  toxicity compared with that anticipated with FK-506: less toxicity was experienced than would be anticipated with FK-506
transplantation
  amount of Cyclosporin A required for immunosuppressive effect in combination: reducing the amount of Cyclosporin A required
